For test [1], the system named is SIRPα signalling induced by A549 cells. Put plainly: Assay B: SIRPα signalling assay using A549 cells. The test is classed as cell-based. The settings on record: Homo sapiens, Table 5, prior art compounds, read-out: Inhibition of SIRPα signalling induced by A549 cells: IC50. The method in brief:
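Raji or A549 cells (5000/well) were each incubated with serially diluted compound for 48 h at 37 °C. Jurkat PathHunter SIRPαV1 reporter cells (15000/well) were then added for 5 h. Beta-galactosidase luminescence gave IC50 via a 4-parameter sigmoidal fit.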

Test [2] concerns cellular (Ramos) QPCTL activity. The following applies: Ramos cells, as disclosed in WO 2024/020517; read-out: Inhibitory activity of cellular (Ramos) QPCTL activity in a FACS assay; cited from earlier work. For orientation: Flow cytometry measures light scatter and fluorescence of single cells or particles in a stream.

Here are results for one compound from patent US20250250251A1, “PIPERIDINYLPYRIDINYLCARBONITRILE DERIVATIVES AS INHIBITORS OF GLUTAMINYL-PEPTIDE CYCLOTRANSFERASE AND GLUTAMINYL-PEPTIDE CYCLOTRANSFERASE LIKE PROTEIN” (Boehringer Ingelheim International GmbH, priority 2024, published 2025).

A value given as a limit tells only on which side of the number the result lay.

In the case of `Cn1cnnc1C1CCN(c2c(-c3ccnnc3)ccc(Cl)c2C#N)CC1` [Compound 33, reference compound], the IC50 in test [1] is 56 nM; in test [2] it was under 100 nM.
